Here are results for six compounds from patent US10294244B2, “2,3-dihydro-thiazolo[3,2-A]pyridin-5-one derivatives, intermediates thereof, and their use as antibacterial agents” (Quretech Bio AB, priority 2014, dated 2019).

For the experiment, the system named is C. trachomatis serovar LGV-L2. Description: Inhibition of infectious Chlamydia progenies (C. trachomatis infectivity, reinfection of HeLa cells, IFU count). It counts as cell-based. Particulars: infected HeLa cells, MOI 0.3, compound added 1 hpi, 44-48 h, relative to DMSO-treated control; for inhibition at 100 µM: 100 uM compound; for inhibition at 50 µM: 50 uM compound. As for the experimental part:
Cell Culture, C. trachomatis Infections, and Determination of C. trachomatis Infectivity.
HeLa cells were infected with C. trachomatis serovar LGV-L2 at an MOI of 0.3. At 1 hpi, RPMI media containing the different dilutions of the tested compounds in DMSO were added. The different compounds were dissolved to 20 mM in DMSO and were then diluted with RPMI media to be added at 2.5 to 100 μM. After 44-48 h incubation, the cells were osmotically lysed by the addition of cold sterile distilled water to release infectious EB progeny. 5×SPG was added to equalize the osmotic pressure to a 1×SPG isotonic condition. An equal amount of HBSS (Hanks balanced salt solution) (Gibco/Invitrogen) was added to the lysate (yielding a 1:1 dilution) and 10-fold serial dilutions of the resulting mixture was used to infect fresh HeLa cells. At 1 hpi, the inoculum was replaced with RPMI media and the infection allowed to progress for 44-48 hours before fixation and staining. Fixation was performed by adding methanol for 5 minutes and the cells were subsequently washed with phosphate buffered saline (PBS). The chlamydial inclusions were stained by a primary rabbit anti-Chlamydia antibody (generated in-house) and a secondary donkey anti-rabbit FITC-labelled antibody (Jackson ImmunoResearch). The DNA of the cells and Chlamydia was stained by the addition of DAPI. The stained cells were analyzed by an ArrayScan automated scanner (ArrayScan VTI HCS, Thermo Scientific). Data were presented as the relative numbers of IFUs in treated infections compared to the numbers of IFUs in DMSO-treated control infections.
The compounds of Examples 1-33 were tested for inhibition of infectious Chlamydia progenies at concentrations of 2.5 μM, 10 μM, 50 μM and 100 μM. In this document μM stands for micromolar. The compounds of the present disclosure were considered to have antibacterial activity if they provided 50% or more inhibition of infectious Chlamydia progenies using at least one of the tested concentrations in Table 1.

Each structure is given as a SMILES string.

The inhibition is the share of the control response that was lost under treatment. Compound `O=C(O)[C@@H]1CSc2c(OCC3CC3)c(Cc3cccc4ccccc34)cc(=O)n21` [Example 28, (3R)-7-(Cyclopropylmethoxy)-6-[(1-naphthyl)methyl]-4-oxo-1-thia-3a-aza-3-indancarboxylic acid] showed an inhibition at 100 µM of 56%.
On the same count and under the same terms, then `O=C(O)[C@@H]1CSc2c(C(F)(F)F)c(Cc3cccc4ccccc34)cc(=O)n21` [Example 29, (3R)-6-[(1-Naphthyl)methyl]-4-oxo-7-(trifluoromethyl)-1-thia-3a-aza-3-indancarboxylic acid], with 56%.
`CC(C)COc1c(Cc2cccc3ccccc23)cc(=O)n2c1SC[C@H]2C(=O)O` [Example 30, (3R)-7-Isobutoxy-6-[(1-naphthyl)methyl]-4-oxo-1-thia-3a-aza-3-indancarboxylic acid] showed an inhibition at 50 µM of 67% and an inhibition at 100 µM of 90%.
The matching figures for `Cc1cccc(Cc2cc(=O)n3c(c2N(C)C)SC[C@H]3C(=O)O)c1C` [Example 31, (3R)-7-(Dimethylamino)-4-oxo-6-[(2,3-xylyl)methyl]-1-thia-3a-aza-3-indancarboxylic acid]: 29% and 86%.
Compound `Cc1ccc(Cc2cc(=O)n3c(c2N(C)C)SC[C@H]3C(=O)O)c2ccccc12` [Example 32, (3R)-7-(Dimethylamino)-6-[(4-methyl-1-naphthyl)methyl]-4-oxo-1-thia-3a-aza-3-indancarboxylic acid] gave an inhibition at 50 µM of 91% and an inhibition at 100 µM of 99%.
In the case of `CC(C)Nc1c(Cc2cccc3ccccc23)cc(=O)n2c1SC[C@H]2C(=O)O` [Example 33, (3R)-7-(Isopropylamino)-6-[(1-naphthyl)methyl]-4-oxo-1-thia-3a-aza-3-indancarboxylic acid], testing at 100 µM gave an inhibition of 50%.
